Where “and” joins values, the source holds several entries; their conditions need not be identical. Identical values can stand only once. Like-named read-outs stand apart in the source and are kept apart here.

These results are taken from paper PMC3962778 (Journal of medicinal chemistry, 2014).

For assay [1], the system named is T. brucei rhodesiense STIB 900 strain. Nature of the assay: Anti-parasite efficacy studies in mice. The note with it: for Cured / Day of euthanasia: mice, oral, 5 days.
In assay [2] the test system is T. brucei brucei (strain BF427). The experiment in a line: In vitro parasite growth arrest assay. The class given is cell-based, Trypanosoma brucei brucei. The note with it: for EC50: Trypanosoma brucei.
[3] abbreviates: 5 mg/kg, 2 doses per day, Exp 1 and Exp 2.
Setting [4] is: 20 mg/kg, 1 dose per day, Exp 2.
The mark [5] stands for this setting: 20 mg/kg, 2 doses per day, Exp 1.
Where [6] appears, read: 50 mg/kg, 1 dose per day, Exp 1.

Turning to `O=C(Nc1ccc(F)c(-c2nc3cc(-c4ccccc4)cnc3[nH]2)c1)N1CCCC1` [Compound 64], in assay [1] (T. brucei infected mice), the “lowest oral dose at which infected mice were cured (dosed orally down to)” value came to 2.5 mg/kg. For the same molecule, the Cured in assay [1] (1 mg/kg, 2 doses per day, Exp 2) is 0 of 5 and 0/5; in assay [1] (2.5 mg/kg, 2 doses per day, Exp 2) it was 2 of 5 and 2/5; in assay [1] (5 mg/kg, 1 dose per day, Exp 2), 2 of 5 and 2/5; in assay [1] (setting [3]), “all mice were cured and 5/5”; in assay [1] (setting [4]) it was “Cures in all mice and 5/5”; in assay [1] (setting [5]) it was “Cures in all mice and 5/5”. For the same molecule, the Cured result in assay [1] (setting [6]) is “Cures in all mice and 5/5”; in assay [1] (50 mg/kg, 2 doses per day, Exp 1) it was “Cures in all mice and 5/5”. For the same molecule, the Day of euthanasia worked out at 60 in assay [1] (setting [3]); 60 in assay [1] (setting [4]); 60 in assay [1] (setting [5]); 60 in assay [1] (setting [6]); 60 in assay [1] (50 mg/kg, 2 doses per day, Exp 1, day 60 = cured). Moreover, in assay [2], the “extent of growth inhibition of T. brucei in vitro” value is “complete growth inhibition”.

For the molecule `Nc1ccc(Cl)c(-c2nc3ncccc3o2)c1` [Compound 36], in assay [2] (tested up to 20 μM), the “inhibition of T. brucei growth in vitro” value is “no inhibition”.

As for `N=C(N)c1ccc(OCCCCCOc2ccc(C(=N)N)cc2)cc1` [Pentamidine, reference compound], the EC50 came to 1.7 nM in assay [2] (read-out: EC50, concentration of compound required to inhibit growth by 50%) and 1.2 nM in assay [2] (read-out: EC50 against T. brucei in vitro).
